Measurements reported in US20080058373A1, “Compositions and Methods for Treating or Preventing Glaucoma or Progression Thereof” (priority 2006, published 2008).
Where “and” joins values, the source holds several entries; their conditions need not be identical. Equal values may be shown once.

Legend:
Assay type in all cases: in vivo
Leukocytes (PMN) = Leukocytes (PMN) measurement in aqueous humor, rabbit paracentesis model; conditions: for PMN numbers in aqueous humor, Mean: second paracentesis, group mean
Experimental: (§1) Each rabbit was placed in a restraint device and tagged with the alphanumeric code. The formulations were instilled (50 μl) into the conjunctival sac of both eyes 180, 120, 90 and 30 min before the first paracentesis; then 15, 30, 90 min after the first paracentesis. To perform the first paracentesis the animals were anaesthetized by intravenous injection of 5 mg/kg Zoletil® (Virbac; 2.5 mg/kg tiletamine HCl and 2.5 mg/kg zolazepam HCl) and one drop of local anesthetic (Novesina®, Novartis) was administered to the eye. Anterior chamber paracentesis was performed with a 26 G needle attached to a tuberculin syringe; the needle was introduced into the anterior chamber through the cornea, taking care not to damage the tissues. Two hours after the first paracentesis, the animals were sacrificed with 0.4 ml Tanax® (Intervet International B.V.) and the second paracentesis was performed. About 100 μl of aqueous humor were removed at the second paracentesis. Aqueous humor was immediately split in four aliquots and stored at −80° C. until analysis. Then both eyes were enucleated and the iris-ciliary body was carefully excised, placed in polypropylene tubes, and stored at −80° C. until analysis.
For the determination of the number of leukocytes we used a haemocytometer (Improved Neubauer Chamber; Bright-line, Hausser Scientific) and a Polyvar 2 microscope (Reichert-Jung).

[1] = tested on: rabbit eye (anterior chamber paracentesis); assay: Clinical evaluation by slit lamp (clinical score), rabbit paracentesis model; parameters: key to Clinical Score −180 min / Clinical Score −5 min / Clinical Score +115 min: 0=normal; 1=discrete dilatation of iris and conjunctival vessels; 2=moderate dilatation of iris and conjunctival vessels; 3=intense iridal hyperemia with flare in the anterior chamber; 4=intense iridal hyperemia with flare in the anterior chamber and presence of fibrinous exudates; conditions: for Clinical Score −5 min: 5 min before the first paracentesis; for Clinical Score −5 min / Clinical Score +115 min / Clinical Score −180 min: single eyes; for Clinical Score +115 min: 5 min before the second paracentesis
Myeloperoxidase (MPO) = Myeloperoxidase (MPO) activity in iris-ciliary body, rabbit paracentesis model; conditions: for MPO activity in iris-ciliary body, Mean / MPO activity in iris-ciliary body: samples collected after the second paracentesis; for MPO activity in iris-ciliary body, Mean: group mean; for Δ/min (mean of the slope of the line recorded every 15 sec for 5 min) / MPO activity in iris-ciliary body: individual eyes
Experimental: 3.9 g of NaH2PO4 2H2O were dissolved in a volumetric flask to 500 ml with water. The pH was adjusted to pH=6 with 3N NaOH.
0.5 g of hexa-decyl-trimethyl-ammonium bromide was dissolved in 100 ml phosphate buffer.
The solution was prepared freshly. Ten microliters of H2O2 (30 wt. %) were diluted to 1 ml with water (solution A). 7.5 mg o-dianisidine 2HCl was dissolved in 45 ml of phosphate buffer and 75 μl of solution A were added.
as §1
The activity of MPO was measured as previously described by Williams et al.[5] The iris-ciliary bodies were carefully dried, weighed and immersed in 1 ml of hexa-decyl-trimethyl-ammonium bromide solution. Then, the samples were sonicated for 10 sec on ice by a ultrasound homogenizer (HD 2070, Bandelin electronic), freeze-thawed three times, sonicated for 10 sec and centrifuged at 14,000 g for 10 min to remove cellular debris. An aliquot of the supernatant (40-200 μl) was diluted to 3 ml with the o-dianisidine 2HCl/H2O2 solution. The change in absorbance at 460 nm was continuously monitored for 5 min by a spectrophotometer (UV/Vis Spectrometer Lambda EZ 201; Perkin Elmer). The slope of the line (Δ/min) was determined for each sample and used to calculate the number of units of MPO in the tissue as follows:
Values were expressed as units of MPO/g of tissue.

[2] = tested on: rabbit eye (anterior chamber paracentesis); assay: Pupillary diameter measurement, rabbit paracentesis model; conditions: for Pupillary diameter T1: −180 min: 50 μl drops, −180 min (basal); for Pupillary diameter T1: −180 min / Pupillary diameter T2: −5 min / Pupillary diameter T3: +115 min: single eyes; for Pupillary diameter T2: −5 min: 5 min before the first paracentesis; for Pupillary diameter T3: +115 min: 5 min before the second paracentesis; for Pupillary diameter Mean Δ(T3 − T1): group mean, n=8 eyes
Experimental: as §1
The pupillary diameter of both eyes was measured with a Castroviejo caliper 180 min and 5 min before the first paracentesis and 5 min before the second paracentesis.

protein in aqueous humor = assay: Protein measurement in aqueous humor, rabbit paracentesis model; conditions: for Protein levels in aqueous humor (raw data): samples collected at the second paracentesis, single eyes; for Protein levels in aqueous humor, Mean: second paracentesis, group mean
Experimental: as §1
For protein concentration determination in the aqueous humor we used the Protein Quantification Kit (Fluka; Cat.No. 77371; Lot.No. 1303129). Five microliters of aqueous humor were diluted to 100 μl with water. Twenty microliters of samples and of standards were load into a 96-well plate and recorded in a plate layout. Samples were treated following the assay procedure described in the kit. A microplate reader (GDV, Italy; model DV 990 B/V6) set at 670 nm was used for making the calibration and analyzing the samples.

Prostaglandin E2 (PGE2) = Prostaglandin E2 (PGE2) measurement in aqueous humor, rabbit paracentesis model; conditions: second paracentesis, group mean
Experimental: as §1
For the quantitative determination of PGE2 in the aqueous humor we used the PGE2 Immunoassay kit (R&D Systems; Cat.No. KGE004; Lot.No. 240010). Eleven microliters or 16 μl of aqueous humor were diluted to 110 μl or 160 μl with the calibrator diluent solution provided with the kit. One hundred microliters of samples and of standards were load into a 96-well plate and recorded in a plate layout. Samples were treated following the assay procedure described in the kit. A microplate reader (GDV, Italy; model DV 990 B/V6) set at 450 nm (wavelength correction at 540 nm) was used for making the calibration and analyzing the samples.

[3] = 0.5% topical, +115 min, N=8 eyes

CC(C(=O)O)c1ccc(-c2ccccc2)c(F)c1 (stereo not drawn) [flurbiprofen]
PMN numbers in aqueous humor, Mean (Leukocytes (PMN); 0.03% topical): 30.000 number/μl | Clinical Score −5 min ([1]; 0.03% topical): 0 | Clinical Score +115 min ([1]; 0.03% topical): 2 | Percentage of eyes with clinical score 2 ([1]; 0.03% topical, +115 min, N=8 eyes): 100% | Percentage of eyes with clinical score 0 ([1]; 0.03% topical, −5 min, N=8 eyes): 100% | Percentage of eyes with clinical score 0 ([1]; 0.03% topical, −180 min (basal), N=8 eyes): 100% | Clinical Score −180 min ([1]; 0.03% topical, −180 min (basal)): 0 | MPO activity in iris-ciliary body, Mean (Myeloperoxidase (MPO); 0.03% topical): 0.906 MPO Unit/g | Δ/min (mean of the slope of the line recorded every 15 sec for 5 min) (Myeloperoxidase (MPO); 0.03% treatment, 100 μl supernatant aliquot diluted to 3 ml, listed as F): 0.049 and 0.082 and 0.013 and 0.031 and 0.038 and 0.027 and 0.033 and 0.061 | MPO activity in iris-ciliary body (Myeloperoxidase (MPO); 0.03% treatment, listed as F): 1.10 Unit/g and 1.70 Unit/g and 0.34 Unit/g and 0.75 Unit/g and 0.74 Unit/g and 0.63 Unit/g and 0.73 Unit/g and 1.27 Unit/g | Pupillary diameter T1: −180 min ([2]; 0.03% topical, listed as F): 5.0 mm and 7.0 mm and 6.0 mm and 5.5 mm | Pupillary diameter T2: −5 min ([2]; 0.03% topical, listed as F): 6.0 mm and 6.5 mm and 7.0 mm and 5.5 mm | Pupillary diameter T3: +115 min ([2]; 0.03% topical, listed as F): 4.0 mm and 3.5 mm and 5.5 mm and 5.0 mm and 4.5 mm and 6.0 mm | Pupillary diameter Mean Δ(T3 − T1) ([2]; 0.03% topical): −0.9 mm | Protein levels in aqueous humor (raw data) (protein in aqueous humor; 0.03% topical, listed as F): 20.78 mg/mL and 28.80 mg/mL and 23.41 mg/mL and 20.21 mg/mL and 17.53 mg/mL and 15.12 mg/mL and 20.52 mg/mL | Protein levels in aqueous humor, Mean (protein in aqueous humor; 0.03% topical): 20.910 mg/mL | Levels of PGE2 in aqueous humor, Mean (Prostaglandin E2 (PGE2); 0.03% topical): 1.189 ng/mL

CCOC(=O)O[C@]1(C(=O)OCCl)CC[C@H]2[C@@H]3CCC4=CC(=O)C=C[C@]4(C)[C@H]3[C@@H](O)C[C@@]21C [loteprednol etabonate]
PMN numbers in aqueous humor (raw data) (Leukocytes (PMN); 0.5% topical, samples collected at the second paracentesis, single eyes, listed as LE): 40 number/μl and 20 number/μl and 30 number/μl | PMN numbers in aqueous humor, Mean (Leukocytes (PMN); 0.5% topical): 28.333 number/μl | Clinical Score −5 min ([1]; 0.5% topical): 0 | Clinical Score +115 min ([1]; 0.5% topical, listed as LE): 2 and 1 | Percentage of eyes with clinical score 1 [1, 3]: 75% | Percentage of eyes with clinical score 2 [1, 3]: 25% | Percentage of eyes with clinical score 0 ([1]; 0.5% topical, −5 min, N=8 eyes): 100% | Percentage of eyes with clinical score 0 ([1]; 0.5% topical, −180 min (basal), N=8 eyes): 100% | Clinical Score −180 min ([1]; 0.5% topical, −180 min (basal)): 0 | MPO activity in iris-ciliary body, Mean (Myeloperoxidase (MPO); 0.5% topical): 0.661 MPO Unit/g | Δ/min (mean of the slope of the line recorded every 15 sec for 5 min) (Myeloperoxidase (MPO); 0.5% treatment, 200 μl supernatant aliquot diluted to 3 ml, listed as LE): 0.026 and 0.053 and 0.067 and 0.055 and 0.076 and 0.096 | MPO activity in iris-ciliary body (Myeloperoxidase (MPO); 0.5% treatment, listed as LE): 0.30 Unit/g and 0.51 Unit/g and 0.81 Unit/g and 0.60 Unit/g and 0.73 Unit/g and 1.01 Unit/g | Pupillary diameter T1: −180 min ([2]; 0.5% topical, listed as LE): 6.0 mm and 6.5 mm | Pupillary diameter T2: −5 min ([2]; 0.5% topical, listed as LE): 6.0 mm and 6.5 mm | Pupillary diameter T3: +115 min ([2]; 0.5% topical, listed as LE): 4.5 mm and 5.0 mm and 5.5 mm and 6.0 mm | Pupillary diameter Mean Δ(T3 − T1) ([2]; 0.5% topical): −0.9 mm | Protein levels in aqueous humor (raw data) (protein in aqueous humor; 0.5% topical, listed as LE): 36.14 mg/mL and 39.10 mg/mL and 34.69 mg/mL and 26.10 mg/mL and 26.30 mg/mL and 28.16 mg/mL and 40.90 mg/mL and 39.85 mg/mL | Protein levels in aqueous humor, Mean (protein in aqueous humor; 0.5% topical): 33.905 mg/mL | Levels of PGE2 in aqueous humor, Mean (Prostaglandin E2 (PGE2); 0.5% topical): 0.672 ng/mL
